System: endosomal TLRs
Assay: TMPD (pristane) + CpG ODN induced SLE model
Assay type: in vivo, mouse
Procedure: At day 7 mice were injected with CpG ODN 1585 (50 μg/20 g). Blood was collected once a month to dose the circulating autoantibodies level. Mice were sacrificed at week 24 after disease induction. (A) Flow cytometry analysis of peritoneum exudate cells populations (PEC) at day 14. […] Statistical significance was assigned using two tailed Student's t test (* p<0.05). (C) Level of circulating anti-RNA antibodies (normalized to control mice), anti-nuclear antibodies (arbitrary units), presence of lipogranulomas in the peritoneal cavity (arbitrary score) and glomerulopathy (histological score blindly determined by an anatomopathologist) at week 24. Statistical significance was assigned by a one-way ANOVA, followed by Tukey range test (* p<0.05;** p<0.005; ***p<0.0005.). N.S., not significant. n values in the figure indicate the number of mice.
Wild type female mice C57BL/6 of 6 weeks of age were injected i.p. with 500 μL of TMPD (Sigma Aldrich) or PBS. From day 1 to day 13 mice were injected i.p. every 2 days with GBZ or PBS/DMSO 2 mg/kg. Mice were injected i.p. at day 7 with ODN 1585 or PBS 50 μg/20 g of mouse. Mice were sacrificed at day 14 or after 6 months. At day 14, peritoneal exudate cells (PEC) were taken for flow cytometry analysis. After 6 months kidneys were taken for immunohistochemistry. During 6 months, blood serum collection was effectuated once a month, from month 2 after the injection of TMPD up to one week before the animal sacrifice. Serum was used to evaluate the concentration of circulating autoantibodies. Anti-RNA ELISA. Evaluation of autoantibodies against RNA was performed by coating ELISA plates with 50 μl/well of 5 μg/ml mouse RNA or DNA in PBS and incubated overnight at 4° C. Next day, the plates were incubated with 1:50 or 1:100 diluted serum samples in working solution (PBS+0.05% Tween20+1% BSA), and the assay was developed with HRP-labeled goat anti-mouse IgG (Southern Biotech).
Mouse kidney and liver were fixed in 10% buffered formalin for 24 h, then the tissues were dehydrated and embedded in paraffin. Tissue sections of 3.5 μm were cut using the microtom Leica RM2245. Hematoxylin-eosin staining was effectuated automatically with Leica autostainer XL. Finally, the slides were mounted with entellan and kept at room temperature. Biopsies were analyzed by an anatomopathologist and the clinical score was assigned in a blinded way. Pictures were taken with Nikon Eclipse.

[1] = 22 weeks after TMPD injection, vs TMPD and CpG only

NC(N)=N/N=C/c1c(Cl)cccc1Cl [GBZ, 2-(2,6-dichlorobenzylidene)-hydrazinecarboximidamide]
circulating anti-RNA immunoglobulins titer [1]: substantially lower
circulating anti-nuclear immunoglobulins titer [1]: substantially lower
Ig-complexes deposits in the kidneys (glomerulonephritis) (C57BL/6, control vs GBZ-treated animals): unable to induce overall sufficient glomerulonephritis to observe significant differences
lipogranulomas in the peritoneal cavity (GBZ-treated vs TMPD and CpG only): considerably smaller numbers
transcriptional up-regulation of TNF-α, ISG 15 and CH25H in PECs (qPCR) (TMPD+CpG injected mice, recurrent GBZ injections): strongly inhibited
immune cells migration into or from the peritoneal cavity (PEC flow cytometry) (day 14, GBZ 2 mg/kg i.p. every 2 days, day 1 to 13): did not prevent

From US20210177814A1, “USE OF GUANABENZ OR DERIVATES THEREOF FOR THE TREATMENT OF TYPE I IFN-DEPENDENT PATHOLOGIES” (INSERM (Institut National de la Santé et de la Recherche …, priority 2018, published 2021)
